Values joined by “and” are separate entries in the source; they are usually repeats but may differ in a detail not shown here. Equal values may be shown once. Read-outs that look alike come from different tables or passages of the source.

One series concerns the target T1, hKv11.1 (hERG), IKr (Homo sapiens, UniProt Q12809).
T1 construct: host or cells: HEK293T
Description: Whole-cell patch-clamp on HEK293T cells, IKr. The class given is cell-based. The settings on record: human, HEK293T cells expressing hKv11.1 (hERG); for inhibition at 200 µM: pH 7.4, cenobamate 200 µM. As to the method:
(§1) Experiments were performed on HEK293T cell lines with persistent/inducible expression of different human cardiac ion channel isoforms: hNav1.5 and hKv7.1 + minK (Anaxon AG, Bern, Switzerland), hCav1.2 (α1c + β2 + α2δ1) (B’SYS GmbH, Witterswil, Switzerland), and hKv11.1 (hERG) (Cytocentrics Bioscience GmbH, Rostock, Germany). The cell lines were grown in standard conditions (37 °C, 5% CO2, 90% humidity) in DMEM:F12 medium (D8900, Sigma-Aldrich, Burlington, MA, USA) buffered with 15 mM HEPES, containing 3.15 g/L D-glucose and 0.055 g/L sodium pyruvate, supplemented with 1.2 g/L sodium bicarbonate, 10% fetal bovine serum (F2442, Sigma-Aldrich, Burlington, MA, USA), 2 mM L-glutamine (G7513, Sigma-Aldrich, Burlington, MA, USA), 1% penicillin–streptomycin (P4333, Sigma-Aldrich, Burlington, MA, USA), and with specific antibiotics for selection of transfected cells or induction of gene expression according to manufacturers’ instructions. The medium was changed every 2–3 days and the cells were passed weekly upon detachment with trypsin–EDTA solution. All cell culture media and solutions were sterile filtered with 0.22 μm polyvinylidene fluoride filters. Ncyte® vCardiomyocytes (Ncardia, Leiden, The Netherlands) were cultured in 24-well plates precoated with bovine fibronectin, following manufacturer’s instructions. For the experiments, cardiomyocytes were detached as described previously and plated on ϕ 10 mm glass coverslips, like the other cell lines.
(§2) Manual whole-cell patch-clamp experiments were performed at room temperature, with equipment as described in previous studies. Pipettes were pulled from Clark borosilicate glass capillaries with inner filament (GC150F-10, Harvard Apparatus, Holliston, MA, USA) and had typical resistances of 2–3 MΩ. Recordings were performed with a WPC-100 resistive feedback amplifier (ESF electronic, Göttingen, Germany) or an Axopatch 200B amplifier (Axon Instruments—Molecular Devices, San Jose, CA, USA) connected to a Digidata 1322A interface driven by the pClamp 8.2 Clampex module (Axon Instruments, part of Molecular Devices, San Jose, CA, USA). For different types of ion channel, we applied specific voltage-clamp protocols as follows: • - For hERG, a standard two-step activation protocol was used: holding at −70 mV, a 100 ms step at −50 mV used as current reference for measurements, a 2 s depolarizing step at +40 mV, followed by a 2 s step at −50 mV to elicit the peak hERG current by rapid recovery from inactivation, repeated sweeps at 10 s intervals, plus specific protocols to assess the voltage dependence of activation and inactivation, as described in Thomet et al., 2021 [11]. • - For hKv7.1 + minK, a general two-step activation protocol was used: holding at −110 mV, a 250 ms step at −80 mV with a brief (50 ms) step at −90 mV at the middle to monitor seal quality, a 3000 ms depolarizing step at +60 mV, followed by a 1000 ms step at −50 mV; repeated sweeps at 20 s intervals. • - For hCav1.2, a pharmacology protocol with holding at −80 mV, a first 100 ms step at −50 mV and a second 200 ms step at 0 mV, repeated sweeps at 20 s intervals with drug application after 5 sweeps if current levels were steady, plus an activation–inactivation protocol with holding at −80 mV, 1000 ms depolarizing steps from −80 to +50 mV in 10 mV increments, followed by 250 ms steps at +10 mV and a return to −80 mV; 14 sweeps at 20 s intervals. • - For hNav1.5, multiple voltage protocols were used, including the following: • - A standard pharmacology protocol with holding at −90 mV, a 20 ms step at −110 mV for seal monitoring, a 40 ms activation step at −10 mV, and repeated sweeps at 1 s intervals. […]
(Patch clamp records ionic current or voltage across a cell membrane.)

A further series addresses T2, hKv11.1 (hERG) (Homo sapiens, UniProt Q12809).
T2 construct: host or cells: HEK293T
Nature of the series: Whole-cell patch-clamp on HEK293T cells, IKr. The class given is cell-based. The protocol: as §1, §2

T1 sequence (Q12809 whole entry): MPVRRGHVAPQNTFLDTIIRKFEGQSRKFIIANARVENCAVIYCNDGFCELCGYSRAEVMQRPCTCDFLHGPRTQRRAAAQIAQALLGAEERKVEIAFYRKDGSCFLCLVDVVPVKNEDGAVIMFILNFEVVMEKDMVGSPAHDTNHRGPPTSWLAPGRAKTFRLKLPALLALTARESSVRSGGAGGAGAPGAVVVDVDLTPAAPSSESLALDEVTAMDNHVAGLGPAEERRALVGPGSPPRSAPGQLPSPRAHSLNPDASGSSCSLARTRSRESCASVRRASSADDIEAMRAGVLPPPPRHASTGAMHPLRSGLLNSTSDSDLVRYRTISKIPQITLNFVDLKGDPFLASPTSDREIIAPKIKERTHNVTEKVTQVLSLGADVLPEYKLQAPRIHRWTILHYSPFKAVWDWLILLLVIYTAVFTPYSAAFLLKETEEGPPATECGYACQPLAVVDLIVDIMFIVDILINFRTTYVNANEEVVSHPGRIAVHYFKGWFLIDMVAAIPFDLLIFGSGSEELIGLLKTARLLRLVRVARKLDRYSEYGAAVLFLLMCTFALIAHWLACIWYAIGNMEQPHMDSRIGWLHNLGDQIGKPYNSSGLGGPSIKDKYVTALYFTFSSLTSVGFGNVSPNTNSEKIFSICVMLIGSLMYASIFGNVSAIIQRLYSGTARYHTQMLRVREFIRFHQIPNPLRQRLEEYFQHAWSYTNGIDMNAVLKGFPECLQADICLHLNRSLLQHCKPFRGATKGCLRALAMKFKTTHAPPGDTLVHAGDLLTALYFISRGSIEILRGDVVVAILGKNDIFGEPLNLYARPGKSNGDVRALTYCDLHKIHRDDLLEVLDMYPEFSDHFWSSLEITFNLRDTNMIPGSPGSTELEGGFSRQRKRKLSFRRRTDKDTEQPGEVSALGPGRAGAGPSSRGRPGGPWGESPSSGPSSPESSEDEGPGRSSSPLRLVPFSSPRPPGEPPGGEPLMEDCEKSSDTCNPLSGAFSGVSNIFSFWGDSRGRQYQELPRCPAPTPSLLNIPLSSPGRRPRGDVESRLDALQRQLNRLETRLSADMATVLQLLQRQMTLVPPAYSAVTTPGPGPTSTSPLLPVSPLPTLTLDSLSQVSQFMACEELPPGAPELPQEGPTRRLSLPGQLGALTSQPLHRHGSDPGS
T2 sequence (Q12809 whole entry): as above

`NC(=O)O[C@@H](Cn1ncnn1)c1ccccc1Cl` [cenobamate]: the inhibition (in general, the relative decrease from the control value, in per cent) at 20 µM at hKv11.1 (hERG), IKr (pH 7.4, cenobamate 20 µM, vs. 4.1% in control experiments, read-out: average peak IKr (hERG) inhibition) came out at 5.3 ± 1.8%. For the same molecule, the inhibition at 200 µM stood at 8.01% on hKv11.1 (hERG), IKr (read-out: % IKr inhibition, single experiments (Table S7)); 6.87% at hKv11.1 (hERG), IKr (read-out: average peak IKr inhibition corrected for control (10.97 − 4.1)); 11 ± 3.11% on hKv11.1 (hERG), IKr (step at -50 mV, read-out: relative peak IKr inhibition, mean). Moreover, the half-maximal inhibitory concentration (IC50) (as a rule, the point on the concentration scale where inhibition reaches its midpoint) against hKv11.1 (hERG) was over 200 µM. For the same molecule, the “% IKr inhibition, single experiments (Table S7)” value at hKv11.1 (hERG) (cenobamate 200 µM) was 14.26% and 12.93% and 7.32% and 12.35%.

The values are drawn from article PMC11674187, “Inhibitory Effects of Cenobamate on Multiple Human Cardiac Ion Channels and Possible Arrhythmogenic Consequences” (Biomolecules, 2024).
